Reference: article PMC8602723, “Comparative assessment of antimicrobial, antiradical and cytotoxic activities of cannabidiol and its propyl analogue cannabidivarin” (Scientific Reports, 2021)
Read-outs that look alike come from different tables or passages of the source.

How the values were obtained:
Type in all cases: cell-based
S. aureus (ATCC 6538) = assay: Microbial susceptibility test (growth inhibition); details: Staphylococcus aureus, read-out: IC50 bacterial growth inhibition
Experimental: (§1) Escherichia coli (ATCC 13762) and S. aureus (ATCC 6538) were cultured overnight in tryptic soy broth and soybean-casein digestive medium (TSB, Oxoid, Milano, Italy) at 37 °C[70]. Subsequently, using 96-well plates (Sarstedt, Italy), 100 µL of TSB, 100 µL of CBD (5–160 µM, DF = 2) or CBDV (5.46–175 µM, DF = 2) and 100 µL of the bacterial culture corresponding to 1 × 10^4 CFU were added sequentially to each well. CBD and CBDV final concentrations in wells equal to 1.66–53 and 1.82–58.19 µM, respectively, were chosen on the basis of range-finding tests. TSB alone was used as the blank, physiologic solution (0.9% NaCl) was used as the negative control, methanol 5% v/v (final percentage in wells equal to 1.6% v/v) was used as the solvent control, and streptomycin at 60 µM (final concentration in the well equal to 20 µM) was used as the positive control. Experiments were conducted in sextuplicate. The plates were covered with sterile film to prevent evaporation and incubated at 37 °C. After 24, 48 and 72 h, the optical density of each well was recorded at 620 nm using a microplate reader. The bacterial growth inhibition percentage (IC%) was determined as follows:7 IC%=1-OD620testsample-OD620blank/OD620negativecontrol-OD620blank·100
(§2) All results from five independent experiments are expressed as the IC50 or EC50 as determined by analysis with Prism 5 software (GraphPad Inc., San Diego, CA, USA) and nonlinear regression (log agonist vs. normalized response-variable slope) with a 95% confidence range. Lowest observed adverse effect concentrations (LOAECs) were calculated by one-way ANOVA and Dunnett’s comparison test. Differences compared to the controls were considered significant as follows: *p < 0.05, **p < 0.001 and ***p < 0.0001.

[1] = system: Escherichia coli (ATCC 13762); assay: Microbial susceptibility test (growth inhibition); details: read-out: IC50 bacterial growth inhibition
Experimental: as §1, §2

A549 cells [2] = assay: MTT assay (mitochondrial metabolism); details: Homo sapiens, read-out: IC50 MTT assay
Text: (§3) MTT assay is the most commonly used method for high-throughput identification of the antiproliferative effects of compounds on cultured cells and is indirectly correlated with mitochondria-dependent apoptosis progression[59]–[61]. The production of reducing equivalents such as NADH in metabolically active cells is an indicator of “cell redox activity”, indirectly reflecting the number of viable cells[60],[61] and the mitochondrial metabolic rate in cells[62],[63].
(§4) A549, Caco-2, HepG2 and TelCOFS02MA cells (1 × 10^4 cells/well), and MDA-MB-231 cells (0.5 × 10^4 cells/well) were seeded in 100 µL of fresh medium into 96-well plates (TC-Plate 96 wells, Sarstedt, Verona, Italy) in quadruplicate for 24 h at 37 °C in a humidified atmosphere of 95% air plus 5% CO2. Then, the medium was removed and replaced with 200 µL of media with different concentrations of CBD (5–80 µM, dilution factor [DF] equal to 2) and CBDV (5.5–88 µM, DF = 2) chosen on the basis of range-finding tests (0.5, 5, and 50 mg/L). We chose 1.56–25 mg/L to be tested and, to make easier the comparison between the two cannabinoids activities, the concentrations were reported in [μM]. In all experiments, negative controls (wells containing cells exposed only to the medium) and solvent controls (wells containing cells exposed to 2.5% methanol) were included. The plates were incubated at 37 °C for three exposure times: 24, 48 and 72 h (different plates were prepared for each specific time point). Then, MTT solution (5 mg/mL) was added to each well, and the plates were re-incubated for 4 h at 37 °C. The culture medium was removed, and 2-propanol was used to dissolve formazan crystals. The absorbance of formazan was measured spectrophotometrically at 590 nm using an automated microplate reader (Synergy H1, Biotek, Winooski, USA). The results are reported as the percentages of cells with inhibited proliferation, as determined by the link between the inhibition of mitochondrial metabolic activity and proliferation. The results were calculated with the following formula:1 IC%=1-OD590sample/OD590negativecontrol·100
(§5) Furthermore, IC50 values (concentrations of the sample used to obtain an inhibition of 50% of cell growth/metabolic activity) were calculated.
as §2

Hep G2 cells = assay: MTT assay (mitochondrial metabolism); details: Homo sapiens, read-out: IC50 MTT assay
Text: as §3, §4, §5, §2

A549 cells [3] = assay: BrdU-ELISA (DNA synthesis inhibition); details: Homo sapiens, read-out: IC50 BrdU-ELISA
Experimental: (§6) BrdU-ELISA was performed according to the protocol described by Lehmann and collaborators, and the results were used to evaluate the inhibition of DNA synthesis. A total of 1 × 10^4 cells/well were seeded in 100 µL of fresh medium into 96-well plates in triplicate at 37 °C in a humidified atmosphere of 95% air plus 5% CO2 for 24 h. Then, the medium was removed and replaced with 200 µL of medium with the same concentrations of CBD and CBDV that had been used in the previous test. In all experiments, blanks (wells with medium and without cells), negative controls (with only medium) and solvent controls (2.5% methanol) were included. The plates were incubated at 37 °C for 72 h. Then, 20 µL of 100 µM BrdU labelling solution was added to each well and incubated for 2 h at 37 °C. After removing the labelling solution, 200 µl of DNA fixing/denaturing solution was added to each well and incubated for 30 min at room temperature. After its discharge, 100 µL of the anti-BrdU-POD antibody solution [0.075 U/mL] was added to each well and incubated for 90 min at room temperature. After several washing steps with 1X PBS (200–300 µL/well), 100 µl of tetramethylbenzidine (TMB) was added to each well and incubated for 20–30 min (sufficient time for the colour change). The incorporation of BrdU into DNA was quantified spectrophotometrically at 370 nm. […] The mean absorbance of the control cells represented 100% cell proliferation, and the mean absorbance of the treated cells was related to the control values to determine cell sensitivity. Inhibition (%) of DNA synthesis/cell viability was determined as follows:2 IC%=1-OD370sample/OD370negativecontrol·100
(§7) IC50 values (representing the median concentration at which DNA synthesis and cell viability were reduced by 50%) were calculated.
as §2

MDA-MB-231 cells = assay: BrdU-ELISA (DNA synthesis inhibition); details: Homo sapiens, read-out: IC50 BrdU-ELISA
Experimental: as §6, §7, §2

[4] = A549, 72 h exposure, 95% confidence interval in brackets

Row | SMILES | IC50 (S. aureus (ATCC 6538); ATCC6538, S. aureus, 24 h of exposure, 95% confidence range in brackets) [µM] | IC50 (S. aureus (ATCC 6538); ATCC6538, S. aureus, 48 h of exposure, 95% confidence range in brackets) [µM] | IC50 (S. aureus (ATCC 6538); ATCC6538, S. aureus, 72 h of exposure, 95% confidence range in brackets) [µM] | IC50 ([1]; ATCC13762, E. coli, 72 h of incubation, 95% confidence range in brackets) [µM] | IC50 (A549 cells [2]; [4]) [µM] | IC50 (Hep G2 cells; HepG2, Hep G2, 72 h exposure, 95% confidence interval in brackets) [µM] | IC50 (A549 cells [3]; [4]) [µM] | IC50 (MDA-MB-231 cells; MDA-MB-231, 72 h exposure, 95% confidence interval in brackets) [µM] | IC50 (S. aureus (ATCC 6538); ATCC6538, 72 h) [µM] | IC50 ([1]; ATCC13762, 72 h) [µM] | IC50 (A549 cells [2]; A549, 72 h) [µM] | IC50 (Hep G2 cells; HepG2, 72 h) [µM] | IC50 (A549 cells [3]; A549, 72 h) [µM] | IC50 (MDA-MB-231 cells; MDA-MB-231, 72 h) [µM]
1 | C=C(C)[C@@H]1CCC(C)=C[C@H]1c1c(O)cc(CCCCC)cc1O [CBD, Cannabidiol] | 10.3 | 4.86 | 1.84 | 29.1 | 27.7 | 15.8 | 40.4 | 38.4 |  |  |  |  |  | 
2 | C=C(C)[C@@H]1CCC(C)=C[C@H]1c1c(O)cc(CCC)cc1O [CBDV, cannabidivarin] |  |  |  |  |  |  |  |  | 30.8 | 35.5 | 32.9 | 19.7 | 48.6 | 46.8
